Glass transition temperature data for 68 molecules are collected here from the PolyMetriX glass transition set.

Molecule `*/C(=C(/*)c1ccc[c]([Ge]([CH3])([CH3])[CH3])c1)c1ccccc1` (repeat unit) showed a glass transition temperature of 200.00 °C.

`*/C(=C/c1cc(OC)c(/C=C(\c2ccccc2)c2ccc(-c3ccc(*)cc3)cc2)cc1OC)c1ccccc1` (repeat unit) displayed a glass transition temperature of 223.00 °C.

For the molecule `*/C(C#N)=C/c1cc(OCC(CC)CCCC)c(/C=C(\C#N)c2ccc3c4ccc(*)cc4n(CC(CC)CCCC)c3c2)cc1OCC(CC)CCCC` (repeat unit), the glass transition temperature was found to be 72.00 °C.

In turn, `*/C(C#N)=C/c1cc(OCCCCCCCCCCCCCCCC)c(/C=C(\C#N)c2cc(OCCCCCCCCCCCCCCCC)c(*)cc2OC)cc1OC` (repeat unit) had a glass transition temperature of 190.00 °C.

As for `*/C=C(/c1ccc(*)cc1)c1ccc(C(F)(F)F)cc1` (repeat unit), the glass transition temperature is 199.00 °C.

`*/C=C(\C#N)C(=O)NC1CCCCC1NC(=O)/C(C#N)=C/c1ccc(/C=C/c2ccc(N(c3ccccc3)c3ccc(N(c4ccccc4)c4ccc(/C=C/c5ccc(*)s5)cc4)cc3)cc2)s1` (repeat unit) displayed a glass transition temperature of 240.00 °C.

`*/C=C(\C#N)c1cccc(/C(C#N)=C/c2ccc(/C=C/c3ccc(N(c4ccccc4)c4ccc(N(c5ccccc5)c5ccc(/C=C/c6ccc(*)s6)cc5)cc4)cc3)s2)c1` (repeat unit) displayed a glass transition temperature of 178.00 °C.

`*/C=C/C(C(=O)OCC)C(*)C(=O)OCC` (repeat unit) registered a glass transition temperature of 6.00 °C.

On to `*/C=C/C1C/C(=C\C)C(*)C1` (repeat unit), for which the glass transition temperature came to 121.00 °C.

`*/C=C/C1CC(*)C(C#N)(CC)C1` (repeat unit) returned a glass transition temperature of 134.00 °C.

`*/C=C/C1CC(*)C(C#N)(CCC)C1` (repeat unit) returned a glass transition temperature of 108.00 °C.

As for `*/C=C/C1CC(*)C(C#N)(CCCC)C1` (repeat unit), the glass transition temperature was found to be 87.00 °C.

As to `*/C=C/C1CC(*)C(C#N)(C[Si](C)(C)C)C1` (repeat unit), the glass transition temperature came out at 128.00 °C.

With `*/C=C/C1CC(*)C(C(=O)OC)C1C(=O)OC` (repeat unit), the glass transition temperature stood at 77.30 °C.

`*/C=C/C1CC(*)C(C(=O)OCCCCCCCCCCCOc2ccc(-c3ccc(C#N)cc3)cc2)C1C(=O)OCCCCCCCCCCCOc1ccc(-c2ccc(C#N)cc2)cc1` (repeat unit) yielded a glass transition temperature of 23.10 °C.

With `*/C=C/C1CC(*)C(C(=O)OCCCCCCOc2ccc(-c3ccc(C#N)cc3)cc2)C1C(=O)OCCCCCCOc1ccc(-c2ccc(C#N)cc2)cc1` (repeat unit), the glass transition temperature came to 55.80 °C.

For the molecule `*/C=C/C1CC(*)C2C(=O)N(CCCC)C(=O)C12` (repeat unit), the glass transition temperature is 131.00 °C.

`*/C=C/C1CC(*)C2C(=O)N(CCCCC)C(=O)C12` (repeat unit): the glass transition temperature came to 99.00 °C.

`*/C=C/C1CC(*)C2C(=O)N(CCCCCC)C(=O)C12` (repeat unit): the glass transition temperature is 87.00 °C.

In turn, `*/C=C/C1CC(*)C2C(=O)N(CCCCCCCC)C(=O)C12` (repeat unit) came in with a glass transition temperature of 56.50 °C.

`*/C=C/C1CC(*)C2C(=O)N(CCCCCCCCC)C(=O)C12` (repeat unit) had a glass transition temperature of 52.00 °C.

On to `*/C=C/C1CC(*)C2C(=O)N(CCCCCCCCCC)C(=O)C12` (repeat unit), for which the glass transition temperature was found to be 46.00 °C.

With `*/C=C/C1CC(*)C2C(=O)N(c3cc(C(F)(F)F)cc(C(F)(F)F)c3)C(=O)C12` (repeat unit), the glass transition temperature came to 162.00 °C.

Regarding `*/C=C/C1CC(*)C2C(=O)N(c3ccccc3)C(=O)C12` (repeat unit), the glass transition temperature was 220.00 °C.

`*/C=C/c1sc(-c2ccc(-c3ccc(-c4sc(/C=C/C5=CC(=C(C#N)C#N)C=C(*)O5)c(CCCCCC)c4CCCCCC)s3)s2)c(CCCCCC)c1CCCCCC` (repeat unit) yielded a glass transition temperature of 112.00 °C.

`*/C=C/c1sc(-c2ccc3c(c2)C(CCCCCC)(CCCCCC)c2cc(-c4sc(/C=C/C5=CC(=C(C#N)C#N)C=C(*)O5)c(CCCCCC)c4CCCCCC)ccc2-3)c(CCCCCC)c1CCCCCC` (repeat unit) had a glass transition temperature of 115.00 °C.

The molecule `*C(*)C(=O)OC(C)C` (repeat unit) gave a glass transition temperature of 70.00 °C.

Take `*C(*)C(=O)OC1CCCCC1` (repeat unit): the glass transition temperature stood at 140.00 °C.

Molecule `*C(*)C(=O)OCCC` (repeat unit) had a glass transition temperature of -15.00 °C.

Consider `*C(OC(F)(F)F)C(*)(F)F` (repeat unit), for which the glass transition temperature was -10.00 °C.

In turn, `*C([2H])([2H])C(*)([2H])C([2H])=C([2H])[2H]` (repeat unit) returned a glass transition temperature of 1.00 °C.

In turn, `*C([2H])([2H])C(*)([2H])c1c([2H])c([2H])c([2H])c([2H])c1[2H]` (repeat unit) had a glass transition temperature of 97.00 °C.

`*C/C=C(\C)C(C)S(*)(=O)=O` (repeat unit) showed a glass transition temperature of 73.00 °C.

On to `*C/C=C(\C)CS(*)(=O)=O` (repeat unit), for which the glass transition temperature was 88.20 °C.

The molecule `*C1(F)OC(C(F)(F)F)(C(F)(F)Cl)OC1(*)F` (repeat unit) registered a glass transition temperature of 330.00 °C.

As to `*C1=C(c2ccc(-c3ccc4c(c3)C(CCCCCC)(CCCCCC)c3cc(-c5ccc(*)cc5)ccc3-4)cc2)C(=O)N(CCCCCCCCCCCC)C1=O` (repeat unit), the glass transition temperature amounted to 100.00 °C.

In turn, `*C1C(*)C2CC1C1C=CCC12` (repeat unit) yielded a glass transition temperature of 145.00 °C.

`*C1C(=O)N(CCCCCCCOc2ccc(-c3ccc(C#N)cc3)cc2)C(=O)C1*` (repeat unit) came in with a glass transition temperature of 61.00 °C.

Molecule `*C1C(=O)N(CCCCCCOc2ccc(-c3ccc(C#N)cc3)cc2)C(=O)C1*` (repeat unit) returned a glass transition temperature of 76.00 °C.

In turn, `*C1C(=O)N(CCCCOc2ccc(-c3ccc(C#N)cc3)cc2)C(=O)C1*` (repeat unit) showed a glass transition temperature of 115.00 °C.

As for `*C1C(=O)N(c2ccc(O[Si](CC)(CC)CC)cc2)C(=O)C1*` (repeat unit), the glass transition temperature turned out to be 165.00 °C.

`*C1C(=O)N(c2ccccc2C)C(=O)C1*` (repeat unit) gave a glass transition temperature of 335.00 °C.

`*C1C(=O)OC(=O)C1C1C2CC(C(=O)OC3CCCCC3)C(C2)C1*` (repeat unit) showed a glass transition temperature of 195.00 °C.

Take `*C1C(=O)OC(=O)C1C1C2CC(C(=O)OCCOCC)C(C2)C1*` (repeat unit): the glass transition temperature was found to be 155.00 °C.

As for `*C1C2CC(C(=O)OCCc3ccc(N(c4ccccc4)c4ccccc4)cc3)C(C2)C1*` (repeat unit), the glass transition temperature was found to be 307.00 °C.

`*C1C2CC(CCCCc3ccccc3)C(C2)C1*` (repeat unit) showed a glass transition temperature of 148.00 °C.

Molecule `*C1CC(*)(C#N)C1` (repeat unit) came in with a glass transition temperature of 220.00 °C.

As to `*C1CC2CC1C(*)C2CCCC` (repeat unit), the glass transition temperature came out at 235.00 °C.

With `*C1CC2CC1C(*)C2CCCCCC` (repeat unit), the glass transition temperature was 252.00 °C.

With `*C1CCOC1*` (repeat unit), the glass transition temperature worked out at 131.00 °C.

Molecule `*C1OCCCC1C1C(=O)OC(=O)C1*` (repeat unit) came in with a glass transition temperature of 210.00 °C.

Turning to `*C1c2cccc3cccc(c23)C1*` (repeat unit), the glass transition temperature turned out to be 250.00 °C.

Turning to `*CC(C)(/C=C(/*)C)C(=O)OC` (repeat unit), the glass transition temperature was found to be 24.00 °C.

Regarding `*CC(O)COC(=O)CCCCCCCCC(=O)OCC(O)COc1ccc(/C=C(\C)c2ccc(O*)cc2)cc1` (repeat unit), the glass transition temperature turned out to be 30.00 °C.

In turn, `*CCC/C=C(/*)c1ccccc1` (repeat unit) gave a glass transition temperature of 0.00 °C.

`*CCCCCCCCCCOc1c(OC)cc(/C=C2\CCC/C(=C\c3cc(OC)c(O*)c(OC)c3)C2=O)cc1OC` (repeat unit) yielded a glass transition temperature of 49.00 °C.

On to `*CCCCCCCCOc1ccc(/C=C2\CCC/C(=C\c3ccc(O*)c(OC)c3)C2=O)cc1OC` (repeat unit), for which the glass transition temperature came to 72.00 °C.

In turn, `*CCCCOC(=O)C(Cc1ccccc1)NC(=O)/C=C/C(=O)NC(Cc1ccccc1)C(=O)O*` (repeat unit) gave a glass transition temperature of 103.00 °C.

As to `*CCOc1ccc(/C=C2\CC/C(=C\c3ccc(OCCOP(=O)(O*)OC)c(OC)c3)C2=O)cc1OC` (repeat unit), the glass transition temperature turned out to be 99.00 °C.

The molecule `*NNC(=O)/C=C/C(=O)NCCCCCCNC(=O)/C=C/C(*)=O` (repeat unit) yielded a glass transition temperature of 102.40 °C.

`*NNC(=O)/C=C/C(=O)Nc1cccc(/C=C2\CCC/C(=C\c3cccc(NC(=O)/C=C/C(*)=O)c3)C2=O)c1` (repeat unit) yielded a glass transition temperature of 238.40 °C.

Molecule `*OC(=O)/C=C/C(=O)OC1COC2C(*)COC12` (repeat unit) gave a glass transition temperature of 60.00 °C.

In turn, `*Oc1ccc(/C(=C/c2cc(OC)c(/C=C(/c3ccc(*)cc3)c3ccc(F)cc3)cc2OC)c2ccc(F)cc2)cc1` (repeat unit) came in with a glass transition temperature of 187.00 °C.

The molecule `*Oc1ccc(/C=C2\CC/C(=C\c3ccc(OC(=O)c4ccc(/N=C/c5ccc(/C=N/c6ccc(C(*)=O)cc6)cc5)cc4)c(OC)c3)C2=O)cc1OC` (repeat unit) yielded a glass transition temperature of 140.00 °C.

In turn, `*Oc1ccc(/C=C2\CCC/C(=C\c3ccc(OC(=O)CCCCCCCCC(*)=O)c(OC)c3)C2=O)cc1OC` (repeat unit) came in with a glass transition temperature of 48.1 °C.

Take `*Oc1ccc(NC(=O)/C=C/C(=O)NNC(=O)/C=C/C(=O)Nc2ccc(OC(=O)c3ccccc3C(=O)NNC(=O)c3ccccc3C(*)=O)cc2)cc1` (repeat unit): the glass transition temperature is 240.00 °C.

Turning to `*c1ccc(/C=C(\C#N)C(=O)NC2CCCCC2NC(=O)/C(C#N)=C/c2ccc(N(c3ccccc3)c3ccc(N(*)c4ccccc4)cc3)cc2)cc1` (repeat unit), the glass transition temperature is 239.00 °C.

`*c1ccc(Oc2ccc(Oc3ccc(Oc4ccc(N5C(=O)C6CCC(C7CCC8C(=O)N(*)C(=O)C8C7)CC6C5=O)cc4)cc3)cc2)cc1` (repeat unit) yielded a glass transition temperature of 217.00 °C.
